In the supplement of paper PMC8671470:

Experiments:
Experiment in all cases: cell viability (% survival relative to DMSO control, bortezomib = 0%); higher = less cytotoxic
Conditions in all cases: 72 h
KU-812 = tested on: KU-812
How it was run: (§1)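 Fifteen myeloid leukaemia cell lines (10 AML, 5 CML) were seeded at a density titrated to the linear growth range. They went into 384-well plates with compounds pre-printed at 1, 10, 100, 1000 or 10000 nM in duplicate. After 72 h at 37 °C with 5% CO2, viability was read by CellTiter-Glo luminescence. Values are percent survival, with vehicle set to 100% and a 10 µM positive control to 0%, averaged over the duplicates.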

BV-173 = tested on: BV-173
How it was run: as §1

K-562 = tested on: K-562
How it was run: as §1

MOLM-13 = tested on: MOLM-13
How it was run: as §1

Row | Compound | cell viability (KU-812; 1 nM) [%] | cell viability (KU-812; 10 nM) [%] | cell viability (KU-812; 100 nM) [%] | cell viability (KU-812; 1000 nM) [%] | cell viability (KU-812; 10000 nM) [%] | cell viability (BV-173; 1 nM) [%] | cell viability (BV-173; 10 nM) [%] | cell viability (BV-173; 100 nM) [%] | cell viability (BV-173; 1000 nM) [%] | cell viability (BV-173; 10000 nM) [%] | cell viability (K-562; 1 nM) [%] | cell viability (K-562; 10 nM) [%] | cell viability (K-562; 100 nM) [%] | cell viability (K-562; 1000 nM) [%] | cell viability (K-562; 10000 nM) [%] | cell viability (MOLM-13; 1 nM) [%] | cell viability (MOLM-13; 10 nM) [%] | cell viability (MOLM-13; 100 nM) [%] | cell viability (MOLM-13; 1000 nM) [%] | cell viability (MOLM-13; 10000 nM) [%]
1 | OCCN1CCN(CCCN2c3ccccc3Sc3ccc(Cl)cc32)CC1 [Perphenazine] | 93.8 | 93.5 | 103 | 98 | 30 | 127 | 97.3 | 89.9 | 117 | 23.2 | 108 | 97.3 | 81.8 | 92 | 0.308 | 114 | 68.9 | 84 | 140 | 18.5
2 | C=CCc1ccc2c(c1O)C(=O)c1ccccc1C2=O [R162] | 98.5 | 89.9 | 95.1 | 125 | 92.1 | 101 | 97 | 89.9 | 125 | 118 | 99.5 | 95.2 | 94 | 118 | 98.5 | 94 | 107 | 106 | 136 | 99.2
3 | O=C(c1ccc(OCCN2CCCCC2)cc1)c1c(-c2ccc(O)cc2)sc2cc(O)ccc12 [Raloxifene] | 97.1 | 95.8 | 95.3 | 93 | 70.6 | 93 | 95.9 | 98.2 | 107 | 92.7 | 99.7 | 99.3 | 98.5 | 98.8 | 77.3 | 79.1 | 82.2 | 106 | 83.2 | 77
4 | NC(=O)c1ncn([C@@H]2O[C@H](CO)[C@@H](O)[C@H]2O)n1 [Ribavirin] | 81.4 | 92.7 | 91.3 | 104 | 94.6 | 93.7 | 106 | 112 | 101 | 91.4 | 82.4 | 95.1 | 119 | 107 | 103 | 87.6 | 88 | 84.1 | 129 | 62.9
5 | Nc1ncnc2c1ncn2[C@@H]1O[C@H](CSCC[C@H](N)C(=O)O)[C@@H](O)[C@H]1O [S-Adenosyl Homocysteine] | 90.8 | 96.9 | 99.2 | 104 | 105 | 98.5 | 83.9 | 99.1 | 104 | 104 | 102 | 104 | 105 | 104 | 98.8 | 100 | 130 | 114 | 115 | 125
6 | CCCc1nn(C)c2c(O)nc(-c3cc(S(=O)(=O)N4CCN(C)CC4)ccc3OCC)nc12 [Sildenafil] | 87.5 | 104 | 91.3 | 107 | 92.1 | 87.4 | 106 | 94.4 | 109 | 92.1 | 91.1 | 93 | 94.9 | 110 | 103 | 101 | 112 | 96.3 | 125 | 106
7 | Cc1coc2c1C(=O)C(=O)c1c-2ccc2c(C)cccc12 [Tanshinone I] | 105 | 104 | 101 | 106 | 89.2 | 109 | 103 | 92 | 94 | 83.6 | 98.6 | 100 | 106 | 82.7 | 79.8 | 89.8 | 103 | 127 | 94.3 | 101
8 | CN(C/C=C/C#CC(C)(C)C)Cc1cccc2ccccc12 [Terbinafine] | 107 | 95.3 | 120 | 94.8 | 92.9 | 113 | 92 | 93.3 | 96.1 | 85.3 | 97.8 | 98 | 106 | 86.1 | 88.8 | 105 | 98.5 | 133 | 90.2 | 113
9 | CCOC(=O)N1c2ccc(C(F)(F)F)cc2[C@@H](N(Cc2cc(C(F)(F)F)cc(C(F)(F)F)c2)C(=O)OC)C[C@H]1CC [Torcetrapib] | 101 | 112 | 113 | 102 | 83.8 | 82.9 | 94 | 67 | 49.3 | 26.9 | 103 | 109 | 121 | 98.6 | 94.4 | 95.9 | 112 | 141 | 98.3 | 63.7
10 | Oc1cc(Cl)ccc1Oc1ccc(Cl)cc1Cl [Triclosan] | 98.8 | 87 | 99.2 | 98 | 57.9 | 98 | 120 | 107 | 98.4 | 105 | 103 | 105 | 93.8 | 106 | 66.6 | 102 | 90.9 | 103 | 86.7 | 109
11 | COc1cc2c(NC3CCN(C)CC3)nc(N3CCCN(C)CC3)nc2cc1OCCCN(C)C [UNC0224] | 98.7 | 107 | 89.8 | 106 | 79.5 | 109 | 117 | 103 | 91.6 | 83.3 | 95 | 106 | 102 | 102 | 88.8 | 104 | 111 | 92.7 | 104 | 71.1
12 | CC(C)C[C@H](NC(=O)[C@@H](O)[C@H](N)Cc1ccccc1)C(=O)O [Ubenimex] | 110 | 109 | 97.8 | 97.4 | 115 | 97.5 | 110 | 90.8 | 78.9 | 99.9 | 111 | 102 | 113 | 89.6 | 102 | 110 | 100 | 114 | 94.8 | 94.3
13 | O=P(O)(O)C(O)(Cn1ccnc1)P(=O)(O)O [Zoledronic acid] | 96.1 | 95.7 | 95.9 | 94.6 | 92.7 | 101 | 109 | 88.8 | 97 | 99 | 105 | 101 | 106 | 98.6 | 102 | 99.2 | 117 | 103 | 84.5 | 99.8
